Counter-ions that a name gives are not always drawn.
T1: β-glucuronidase (Homo sapiens, UniProt P08236)
T1 sequence (P08236 23-651): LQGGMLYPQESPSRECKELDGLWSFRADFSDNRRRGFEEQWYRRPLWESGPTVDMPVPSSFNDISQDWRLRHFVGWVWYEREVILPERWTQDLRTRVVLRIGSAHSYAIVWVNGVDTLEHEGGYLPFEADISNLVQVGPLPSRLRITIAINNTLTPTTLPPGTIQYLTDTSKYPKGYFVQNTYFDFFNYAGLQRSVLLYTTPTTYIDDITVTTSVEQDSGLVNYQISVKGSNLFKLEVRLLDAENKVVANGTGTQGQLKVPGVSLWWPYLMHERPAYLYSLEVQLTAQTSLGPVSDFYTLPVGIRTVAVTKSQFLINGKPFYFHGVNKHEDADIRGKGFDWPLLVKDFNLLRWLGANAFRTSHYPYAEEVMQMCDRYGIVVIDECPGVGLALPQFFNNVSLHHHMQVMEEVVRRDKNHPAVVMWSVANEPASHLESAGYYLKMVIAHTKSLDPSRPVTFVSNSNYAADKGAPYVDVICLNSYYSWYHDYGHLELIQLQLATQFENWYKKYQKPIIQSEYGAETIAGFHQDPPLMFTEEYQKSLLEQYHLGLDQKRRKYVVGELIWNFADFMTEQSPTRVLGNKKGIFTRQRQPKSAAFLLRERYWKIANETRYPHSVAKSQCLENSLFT


Tests used:
PQQ-ADH (1) = assay: Substrate specificity of PQQ-ADH (1); type: biochemical, Pseudogluconobacter saccharoketogenes; conditions: McIlvaine buffer pH 5.0, relative to D-glucose set to be 100
Experimental: (§1) The culture solution (1 mL) was centrifuged at 10,000 rpm for 5 minutes to recover the cells. The cells were resuspended in 1 mL of 0.9% saline. The cell suspension was appropriately diluted in 0.9% saline to obtain a crude enzyme solution. In a test tube 250 μL of the buffer, 500 μL of the substrate solution and 50 μL of the crude enzyme solution were placed and preliminarily heated to 30° C. for 5 minutes.
(§2) To the mixture 200 μL of the potassium ferricyanide solution was added to initiate oxidation reaction. After 10 minutes, 500 μL of the reaction termination solution was added to terminate the reaction. The reaction solution was added with 3.5 mL of pure water, left to stand in the dark at room temperature for 20 minutes and measured for the absorbance at 660 nm. For the control, pure water was used instead of the substrate solution. In this measurement, 1 U is defined as the amount of enzyme required to oxidize 1 μM of the substrate per minute.
(§3) Each substrate (D-glucose, sodium D-gluconate, sodium D-glucuronate, intermediate A, sodium salt of intermediate B) was dissolved in McIlvaine buffer (pH 5.0) and the activity of ADH was measured as described in Example 1 to study the substrate specificity of PQQ-ADH (1). The enzyme activity for each substrate is expressed as a relative activity to the activity measured with D-glucose as a substrate that was set to be 100.

PQQ-ALDH (2) = assay: Substrate specificity of PQQ-ALDH (2); type: biochemical, Pseudogluconobacter saccharoketogenes; conditions: McIlvaine buffer pH 8.0, relative to sodium salt of intermediate B set to be 100
Experimental: (§4) • Substrate solution: 0.2 M sodium glyoxylate solution (adjusted to pH 8.0 with sodium hydroxide) • Buffer: McIlvaine buffer (pH 8.0)
(§5) Other reagents and preparation methods thereof and measurement procedures are in accordance with the measurement of ADH (1) activity.
as §3, with “intermediate B, sodium glyoxylate)” for “intermediate B)”, “(pH 8.0)” for “(pH 5.0)”, “of ALDH” for “of ADH”, “of PQQ-ALDH (2).” for “of PQQ-ADH (1).”, “with the sodium salt of intermediate B” for “with D-glucose”

PQQ/Heme-ALDH (4) = assay: Substrate specificity of PQQ/Heme-ALDH (4); type: biochemical, Pseudogluconobacter saccharoketogenes; conditions: McIlvaine buffer pH 8.0, relative to sodium D-gluconate set to be 100
Experimental: as §4, §5
as §3, with “intermediate B, sodium glyoxylate)” for “intermediate B)”, “(pH 8.0)” for “(pH 5.0)”, “of ALDH” for “of ADH”, “of PQQ/Heme-ALDH (4).” for “of PQQ-ADH (1).”, “with sodium D-gluconate” for “with D-glucose”

β-glucuronidase = molecular target: T1, β-glucuronidase; conditions: background statement; cited from earlier work
ALDH (2 and 3) = assay: Measurement of activity of ALDH (2 and 3) (potassium ferricyanide method, sodium glyoxylate substrate, pH 8.0); type: biochemical, Pseudogluconobacter saccharoketogenes
Experimental: as §1, §2
2) Measurement of Activity of ALDH (2 and 3)
as §4, §5

ADH (1) = assay: Measurement of activity of ADH (1) (potassium ferricyanide method, glucose substrate, pH 5.0); type: biochemical, Pseudogluconobacter saccharoketogenes; conditions: ADH (1) activity
Experimental: 1) Measurement of Activity of ADH (1)
• Substrate solution: 0.2 M glucose solution • Buffer: McIlvaine buffer (pH 5.0) • Potassium ferricyanide solution: 0.1 M potassium ferricyanide solution • Reaction termination solution: 5 g of ferric sulphate and 95 mL of phosphoric acid were dissolved in pure water and adjusted to 1 L. <Measurement Procedures>
as §1, §2

| Molecule | Relative activity (PQQ-ADH (1); 0.2M substrate) [%] | Relative activity (PQQ-ALDH (2); 0.2M substrate) | Relative activity (PQQ/Heme-ALDH (4); 0.2M substrate) | other results |
| --- | --- | --- | --- | --- |
| O=C[C@@H](O)[C@@H](O)[C@H](O)[C@@H](O)C(=O)O [sodium salt of intermediate B, L-guluronic acid] | 2.7 | 100% | 21.1% | – |
| O=CC(=O)[O-].[Na+] [sodium glyoxylate, reference compound] | – | 3,050% | 20,260% | – |
| O=C(O)[C@@H](O)[C@@H](O)[C@H](O)[C@@H](O)C(=O)O [D-glucaric acid] | – | – | – | inhibition of β-glucuronidase (β-glucuronidase): strongly inhibit |
| O=C[C@H](O)[C@@H](O)[C@H](O)[C@H](O)C(=O)[O-].[Na+] [sodium D-glucuronate] | <1 | 18.6% | 2.9% | – |
| O=C[C@@H](O)[C@@H](O)[C@H](O)[C@@H](O)C=O [intermediate A, D-glucaraldehyde] | – | – | – | Relative activity (PQQ-ADH (1); 0.02M substrate): 59.1%; Relative activity (PQQ-ALDH (2); 0.02M substrate): 476%; Relative activity (PQQ/Heme-ALDH (4); 0.02M substrate): 11.6% |
| O=C([O-])[C@H](O)[C@@H](O)[C@H](O)[C@H](O)CO.[Na+] [sodium D-gluconate] | 88.6 | <1% | 100% | – |
| O=C[C@H](O)[C@@H](O)[C@H](O)[C@H](O)CO [D-glucose] | 100 | 11.8% | 35.1% | – |
| PQQ/Heme-ALDH (4): ALDH (3) enzyme with the highest activity, contains PQQ and Heme c, SEQ ID NO: 3 (protein, PQQ and heme c cofactors; Pseudogluconobacter) MTIRLKTLLAFTAITTLALPAFAQDAAAPAAPAARTYKPVTNDMILNPPAEEWISWRRTVDNQGYSPLDLINKDIVKNLELAWAWPMAADGQQEAAPLVHDGIMFLSTNQNIIQALDAKTGDLIWEYRHVLPELPTSWGYQLNQARRQKNSIALYDDKVIVATADAKLVALDAATGKVAWETQVYDTQKGYSYTVGPLIVGDTAVYGPAGGEYGIRGWLEFIAAHDAKTGKEIWRFNTIDDPKNPEQEASWNGVPPENRWGGTPWTTGSYDPRTNTTFWGVGMPGPYSQLIRGSGEGPVLYTNNTLALDADTGERKWNFSHLPADNWDLDSPFERILVDEGQGDAAKHLLVTVPGKDGIAFGLDRDTGKYLWSRDTVYQNVVKNIDAEGKVTLNSDLVPTAVNQEVFVCTSVSGGKLWMTGAYSPKTQTYYVPLAEACNTVTPTVTEFTAGNAVGATKFGPRVLPPNITNGGVVEAINVADGARKWRLEQRPTFSSSLLAKAKVLVPRRLNGMLATGGDLETGQVVWKTRLNAPIGGYPMTYEIDGEQYLAVPTGFSAQASSSASMFPEIPVPSGSGNSLFVFKLRNDTQTASK | – | – | – | Specific activity (ALDH (2 and 3); enzyme purified from K591s strain, ALDH (3) activity): 27,661 U/mg |
| PQQ-ALDH (2): specific pyrroloquinoline quinone-dependent aldehyde dehydrogenase, amino acid sequence of SEQ ID NO: 2 (protein, Pseudogluconobacter) MYRKGSVLTVSALVLGLCTSSVWAQQAPTTNALDNLTPVTSVWAQQAPTTNALDNLTPVTGWGYSPLDQINKDNVDKLQLVWSWGLSPGGTTQETPLVHDGVMFVQNSSHLIQALDAGTGELLWQYQYSLPTGVNPAGQRSKALYGDNLIFATRDAHIVAVNAKTGKLAWDQQVADYKKGWGYSSGPLVADGTIIQGMTNCGNGEPGGCFITGHDPATGKELWRLNTIASGDTPEGNSWNGLPQMSRYGASAWITGSYDPDQNIVFAGVGQPYPWPAVLNGLLPKSTDSKYTNNAAYTDSTLAIEPKTGALKWYHQYLATDTLDLDYVYERLLVDLPVKGEATKQVITAGKLAIIESLDRTSGKWLWAHETVPQNVVSAIDPVTGEKTINPDVIPQVGKTTVNCPADPGGRAWQATSFSPKTQMMYMPTVEFCSNTDVNPLDPGQVYTGGGLATFNRVPRPDSDGNIGQVRAINLADQTDAWMYRQHAPVTTSTLPTGGGLVFVGTLDRKLIAFDDTTGKILWTSPKLDNAIESFPVTFTAGDKQYVAVVTNWSSGLGRLKSITPDVQLPQDNPHTVYVFALPDTK | – | – | – | Specific activity (ALDH (2 and 3); enzyme purified from Rh47-3 strain, ALDH (2) activity): 8,928 U/mg |
| PQQ-ADH (1): specific pyrroloquinoline quinone-dependent alcohol dehydrogenase, amino acid sequence of SEQ ID NO: 1 (protein, Pseudogluconobacter) MLKQSLLASGLAALCVAAMGSLSLAAETTSERLLNAGSEAENGNWLMVHRTYDSHRFSPLSEINKDTIKDLGLASVTILDNASRGGRYASARNEGTPLVEDGFMYLQSGWSVVYKLDVRDGKTAKVVWKYDPEVDRQWVSDATCCGAENRGIGLWNDDVVALTMDGRVMSINKDTGELNWEKQRADKARAESFTGAPLIIGDTAVYGPAGGEYGIRGWLEAIDLKTGDVAWRTYTVPGPGEPGNDTWQGNAWETGGASIWQTGSYDPDTGMTYWGTGNPAPQIDAEYRPGDNLYASSLLALDAKDGALKWHFQFTPNDPYDYDEIGDNQLLDVSVDGKPSKMVVRAARNGFMYGFNRLDGAMTYAKQYVEDLTWTTGIDPKTGKPLEYDPKAQLQKYVAGTVGSREGNPGIYCPTLGGGKNWQPAAYSPNTKLLYVTSAEGCSAYVPEAAPNPTTTGGEYDVVKAQREWNGRLPAPEGTKLPDVFNGGSVKAIDPLTGETKAKVLVPRRLNGMLATGGDLVWSSGTDGNLYAYDANTLETVWTFNVGTALGGPPMSYSVDGKQYVAVLAGAAASAADKKVAPQSEFFVPADALYIFALK | – | – | – | Specific activity (ADH (1); enzyme purified from K591s strain): 36.0 U/mg; Specific activity (ADH (1); enzyme purified from Rh47-3 strain): 38.6 U/mg |

Source: patent US12241112B2, “D-glucaric acid producing bacterium, and method for manufacturing D-glucaric acid” (Ensuiko Sugar Refining Co., Ltd., priority 2012, dated 2025)
